Experimental data taken from patent US6277829A, “Process for preparing of aqueous formulation for opthalmic use” (S.I.F.I. Societa Industria Farmaceutica Italiana S.p.A., priority 1999, dated 2001).

Experiments:
[1] = titration of azithromycin and clarithromycin, dispersed in water, with citric acid (FIG. 1, FIG. 2); assay type: physicochemical; settings: titration with citric acid
[2] = solubility in aqueous solution; assay type: physicochemical; settings: water; compared with azithromycin; read-out: maximum concentration in water
Excerpt: Formulations containing azithromycin at concentration ranging from 0.01 to 10% w/v, more particularly between 0.3 and 5% w/v, are the most preferred.

**Q.** Which results are given for CC[C@H]1OC(=O)[C@H](C)[C@@H](O[C@H]2C[C@@](C)(OC)[C@@H](O)[C@H](C)O2)[C@H](C)[C@@H](O[C@@H]2O[C@H](C)C[C@H](N(C)C)[C@H]2O)[C@](C)(OC)C[C@@H](C)C(=O)[C@H](C)[C@@H](O)[C@]1(C)O [clarithromycin]?
**A.** equivalent point [1]: ~4.5 pH; solubility [2]: < 20 mg/mL
